Reference: the CheMixHub drug solubility set

Assay: xn = mol fraction of the nth substance listed, in the solute-free solvent

Cc1nc(C)c(C)nc1C + CCCCO + CC#N
solubility (g/100 g solution)
Conditions	273.15 K	278.15 K	283.15 K	288.15 K	293.15 K	298.15 K	303.15 K	308.15 K	313.15 K
x2 = 0.1	14	16.4	19.4	21.5	27.1	29.5	36.1	39.3	44.2
x2 = 0.2	18.3	21	23.4	27.1	31.6	34.6	39.8	43.8	48.2
x2 = 0.3	21.2	24.6	26.9	30.9	35.3	38.2	42.8	46.6	50.5
x2 = 0.4	22.8	25.9	28.7	33	37.8	40.3	44.8	48.5	52.8
x2 = 0.5	23.7	26.6	30.4	34	39.2	41.5	45.7	49.3	53.6
x2 = 0.6	24.5	26.1	30.6	34.2	39.4	41.6	45.7	50	53.9
x2 = 0.7	24.3	25.7	30.1	33.6	39.3	41.5	44.8	50.1	53.6
x2 = 0.8	23.5	24.9	29.4	33	38.4	41	43.8	49.6	53
x2 = 0.9	21.8	23.6	27.9	30.6	36.3	39.2	41.8	47.9	51.3

CCc1cccc2c3c([nH]c12)C(CC)(CC(=O)O)OCC3 (stereo not given) + CCCCOC(C)=O + CCCCCC
solubility (g/100 g solution)
Conditions	278.15 K	283.15 K	288.15 K	293.15 K	298.15 K	303.15 K	308.15 K	313.15 K	318.15 K	323.15 K
x2 = 0.1568	0.52	0.667	0.805	0.936	1.08	1.23	1.41	1.62	1.86	2.07
x2 = 0.3309	3.1	3.48	3.93	4.43	5	5.64	6.39	7.21	8.15	9.12
x2 = 0.5268	4.5	5.13	5.79	6.5	7.27	8.13	9.13	10.2	11.5	12.9
x2 = 0.7478	7.51	8.4	9.35	10.4	11.5	12.8	14.2	15.8	17.5	19.4

CCc1cccc2c3c([nH]c12)C(CC)(CC(=O)O)OCC3 (stereo not given) + CCCO + CCCCCC
solubility (g/100 g solution)
Conditions	278.15 K	283.15 K	288.15 K	293.15 K	298.15 K	303.15 K	308.15 K	313.15 K	318.15 K	323.15 K
x2 = 0.2645	3.73	4.25	4.84	5.55	6.34	7.19	8.14	9.21	10.4	11.7
x2 = 0.4889	7.29	8.31	9.43	10.8	12.2	14	15.9	18.1	20.6	23.4
x2 = 0.6827	10.4	11.8	13.4	15.2	17	19.4	22.2	25.3	28.6	31.9
x2 = 0.8514	12.8	14.4	16.5	18.7	21.5	24.5	27.9	31.4	35.1	38.5

O=C(O)c1ccc(-n2nc(-c3ccccc3O)nc2-c2ccccc2O)cc1 + CCO + CC#N
298.15 K
Conditions	solubility (g/100 g solution)
x2 = 0.09009	4.09
x2 = 0.1822	7.7
x2 = 0.2764	11.7
x2 = 0.3727	15.7
x2 = 0.4712	18.8
x2 = 0.572	21.2
x2 = 0.6752	21.4
x2 = 0.7809	19.3
x2 = 0.8891	15.9

O=CC(O)C(O)C(O)CO (stereo not given) + CCO + CCCCCC
solubility (g/100 g solution)
Conditions	x2 = 0.1	x2 = 0.2	x2 = 0.3	x2 = 0.4	x2 = 0.5	x2 = 0.6	x2 = 0.7	x2 = 0.8	x2 = 0.9
283.15 K	0.0708	0.0912	0.139	0.18	0.281	0.514	0.692	1.16	1.73
293.15 K	0.0738	0.111	0.171	0.268	0.425	0.715	1.07	1.56	2.52
303.15 K	0.0959	0.119	0.186	0.375	0.676	1.1	1.5	2.39	4.09
313.15 K	0.117	0.179	0.269	0.599	0.925	1.8	2.44	4.02	6.9
323.15 K	0.147	0.234	0.317	0.98	1.54	2.72	3.96	6.76	12.3

O=C(O)c1ccc(-n2nc(-c3ccccc3O)nc2-c2ccccc2O)cc1 + CCO + CO
298.15 K
Conditions	solubility (g/100 g solution)
x2 = 0.07174	12.7
x2 = 0.1481	12.9
x2 = 0.2296	12.8
x2 = 0.3168	12.7
x2 = 0.4102	12.5
x2 = 0.5106	12.2
x2 = 0.6188	11.9
x2 = 0.7356	11.5
x2 = 0.8623	11

O=CC(O)C(O)C(O)CO (stereo not given) + CCO + ClCCl
solubility (g/100 g solution)
Conditions	x2 = 0.1	x2 = 0.2	x2 = 0.3	x2 = 0.4	x2 = 0.5	x2 = 0.6	x2 = 0.7	x2 = 0.8	x2 = 0.9
283.15 K	0.222	0.374	0.669	1.02	1.41	1.64	1.88	2.05	2.24
288.15 K	0.227	0.458	0.813	1.26	1.81	2.12	2.32	2.57	2.85
293.15 K	0.254	0.522	1.1	1.55	2.15	2.55	2.96	3.23	3.55
298.15 K	0.264	0.645	1.28	1.9	2.77	3.18	3.69	4.2	4.58
303.15 K	0.325	0.776	1.43	2.28	3.27	4.09	4.72	5.4	5.99

O=c1cc(-c2ccccc2)oc2cc(O)c(O)c(O)c12 + CCO + O
solubility (g/100 g solution)
Conditions	283.15 K	288.15 K	293.15 K	298.15 K	303.15 K	308.15 K	313.15 K	318.15 K	323.15 K	328.15 K
x2 = 0.2	0.0427	0.0499	0.0671	0.0809	0.0932	0.105	0.128	0.157	0.179	0.228
x2 = 0.4	0.194	0.221	0.262	0.314	0.372	0.444	0.554	0.643	0.73	0.887
x2 = 0.6	0.413	0.455	0.52	0.587	0.663	0.795	0.919	1.07	1.23	1.46
x2 = 0.8	0.474	0.525	0.574	0.634	0.728	0.831	0.939	1.08	1.27	1.51

CC(C)Oc1ccc2c(=O)c(-c3ccccc3)coc2c1 + CN1CCCC1=O + CCO
solubility (g/100 g solution)
Conditions	278.15 K	283.15 K	288.15 K	293.15 K	298.15 K	303.15 K	308.15 K	313.15 K	318.15 K	323.15 K
x2 = 0.1038	1.5	1.87	2.26	2.85	3.5	4.39	5.46	6.91	8.81	10.8
x2 = 0.2359	2.85	3.39	4.07	4.91	6.03	7.33	8.92	11	13.1	15.9
x2 = 0.41	5.57	6.67	7.63	9.21	10.9	12.9	15.3	17.8	21	24.9
x2 = 0.6471	9.68	11	12.7	14.6	16.8	19.3	22.1	25.1	28.4	32.1

CC(C)Oc1ccc2c(=O)c(-c3ccccc3)coc2c1 + CN(C)C=O + CCO
solubility (g/100 g solution)
Conditions	278.15 K	283.15 K	288.15 K	293.15 K	298.15 K	303.15 K	308.15 K	313.15 K	318.15 K	323.15 K
x2 = 0.1358	1.29	1.64	2.07	2.55	3.28	4.15	5.33	6.87	8.61	11
x2 = 0.2956	2.42	3	3.68	4.58	5.6	6.95	8.67	10.9	13.3	16.5
x2 = 0.4859	3.8	4.83	5.92	7.22	8.72	10.4	12.9	15.3	18.8	22.7
x2 = 0.716	5.06	6.49	7.97	9.74	11.7	14.2	17.1	20.4	24	28.5

N#CC(c1ccc(Cl)cc1)c1c(Cl)cc(-n2ncc(=O)[nH]c2=O)cc1Cl (stereo not given) + CN(C)C=O + CCO
solubility (g/100 g solution)
Conditions	283.15 K	288.15 K	293.15 K	298.15 K	303.15 K	308.15 K	313.15 K	318.15 K	323.15 K
x2 = 0.1361	3.28	3.86	4.52	5.25	6.05	6.91	7.87	8.89	9.99
x2 = 0.2959	5.7	6.56	7.46	8.51	9.59	10.8	12	13.4	14.7
x2 = 0.486	8.24	9.37	10.4	11.7	12.9	14.2	15.7	17.2	18.8
x2 = 0.716	10.6	11.8	12.9	14.3	15.6	17	18.5	20	21.6

Cc1nc(C)c(C)nc1C + CO + CC#N
solubility (g/100 g solution)
Conditions	273.15 K	278.15 K	283.15 K	288.15 K	293.15 K	298.15 K	303.15 K	308.15 K	313.15 K
x2 = 0.1	12.7	15	18.1	21.4	25.1	28.9	33.9	37.6	44.6
x2 = 0.2	17.3	20.5	23.4	26.7	30.8	34.9	40.1	43.5	50.5
x2 = 0.3	21.2	24.5	28.2	31.8	36.5	40.2	46	49.2	55.7
x2 = 0.4	25.6	28.9	32.5	36.4	41	44.3	50	53.8	60.4
x2 = 0.5	28.6	32	36.6	39.9	45.1	48.2	53.4	57.3	63.5
x2 = 0.6	31.3	34.5	39.2	42.7	47.6	51.5	56.2	60.5	67.4
x2 = 0.7	33.6	36.1	40.8	44.6	49.4	53.8	59	63.1	70
x2 = 0.8	34.6	37.3	42.2	45.7	50.8	54.8	61.3	64.9	71.2
x2 = 0.9	35	37.6	42.7	45.6	51	54.9	61.9	65.3	70.7

O=C(O)c1ccc(-n2nc(-c3ccccc3O)nc2-c2ccccc2O)cc1 + CO + CC#N
298.15 K
Conditions	solubility (g/100 g solution)
x2 = 0.1246	4.33
x2 = 0.2426	7.73
x2 = 0.3544	11.2
x2 = 0.4606	14.2
x2 = 0.5616	16.4
x2 = 0.6577	17.6
x2 = 0.7493	18
x2 = 0.8367	17.2
x2 = 0.9202	15.3
